Like-named read-outs stand apart in the source and are kept apart here.
Legend:
[1] = tested on: B16F mouse melanoma, metastatic; assay: MTT cytotoxicity assay, B16F; assay type: cell-based; conditions: Mus musculus, 72 hours, read-out: TCS50
Excerpt: (§1) One of the parameters used as the basis for colorimetric assays is the metabolic activity of viable cells. For example, a microtiter assay which uses the tetrazolium salt MTT is now widely used to quantitate cell proliferation and cytotoxicity [Hajdúch M, Mihál V, Minarík J, Fáber E, Safárová M, Weigl E, Antálek P.: Cytotechnology, 1996, 19, 243–245]. For instance, this assay is used in drug screening programs and in chemosensitivity testing. Because tetrazolium salts are cleaved only by metabolically active cells, these assays exclusively detect viable cells. In the case of the MTT assay, yellow soluble tetrazolium salt is reduced to a coloured water-insoluble formazan salt. After it is solubilized, the formazan formed can easily and rapidly be quantified in a conventional ELISA plate reader at 570 nm (maximum absorbancy). The quantity of reduced formazan corresponds to the number of vital cells in the culture. […]
(§2) The cell suspensions that were prepared and diluted according to the particular cell type and the expected target cell density (2,500–30,000 cells per well based on cell growth characteristics) were added by pipette (80 μl) into 96/well microtiter plates. […] Usually, test compounds were evaluated at six 4-fold dilutions. […] The tumour cell survival (TCS) was calculated using the following equitation: TCS=(ODdrug exposed well/mean ODcontrol wells)×100%. […]

[2] = tested on: CEM-DNR 1/C2 human T-lymphoblastic leukemia, daunorubicin resistant; assay: MTT cytotoxicity assay, CEM-DNR 1/C2; assay type: cell-based; conditions: Homo sapiens, 72 hours, read-out: TCS50
Excerpt: as §1, §2

[3] = tested on: BT549 human breast cancer, p53mut/mut; assay: MTT cytotoxicity assay, BT549; assay type: cell-based; conditions: Homo sapiens, BT-549, 72 hours, read-out: TCS50
Excerpt: as §1, §2

[4] = tested on: CEM-VCR 3/D5 human T-lymphoblastic leukemia, vincristin resistant; assay: MTT cytotoxicity assay, CEM-VCR 3/D5; assay type: cell-based; conditions: Homo sapiens, 72 hours, read-out: TCS50
Excerpt: as §1, §2

[5] = tested on: K562-GEM human promyelocytic leukemia, gemcitabin resistant; assay: MTT cytotoxicity assay, K562-GEM; assay type: cell-based; conditions: Homo sapiens, 72 hours, read-out: TCS50
Excerpt: as §1, §2

HT-29 human colon cancer = assay: MTT cytotoxicity assay, HT-29; assay type: cell-based; conditions: Homo sapiens, 72 hours, read-out: TCS50
Excerpt: as §1, §2

[6] = tested on: Caco-2 human colon cancer; assay: MTT cytotoxicity assay, Caco-2; assay type: cell-based; conditions: Homo sapiens, 72 hours, read-out: TCS50
Excerpt: as §1, §2

[7] = tested on: K562 human promyelocytic leukemia; assay: MTT cytotoxicity assay, K562; assay type: cell-based; conditions: Homo sapiens, 72 hours, read-out: TCS50
Excerpt: as §1, §2

[8] = tested on: K562-CdA human promyelocytic leukemia, cladrubin resistant; assay: MTT cytotoxicity assay, K562-CdA; assay type: cell-based; conditions: Homo sapiens, 72 hours, read-out: TCS50
Excerpt: as §1, §2

[9] = tested on: NIH3T3 mouse immortalised fibroblasts; assay: MTT cytotoxicity assay, NIH3T3; assay type: cell-based; conditions: Mus musculus, 72 hours, read-out: TCS50
Excerpt: as §1, §2

MEL-3 human melanoma = assay: MTT cytotoxicity assay, MEL-3; assay type: cell-based; conditions: Homo sapiens, 72 hours, read-out: TCS50
Excerpt: as §1, §2

[10] = tested on: CEM human T-lymphoblastic leukemia; assay: MTT cytotoxicity screening assay, CEM; assay type: cell-based
Excerpt: One of the parameters used as the basis for colorimetric assays is the metabolic activity of viable cells. For example, a microtiter assay which uses the tetrazolium salt MTT is now widely used to quantitate cell proliferation and cytotoxicity [Hajdúch M, Mihál V, Minarík J, Fáber E, Safárová M, Weigl E, Antálek P.: Cytotechnology, 1996, 19, 243–245]. For instance, this assay is used in drug screening programs and in chemosensitivity testing. Because tetrazolium salts are cleaved only by metabolically active cells, these assays exclusively detect viable cells. In the case of the MTT assay, yellow soluble tetrazolium salt is reduced to a coloured water-insoluble formazan salt. After it is solubilized, the formazan formed can easily and rapidly be quantified in a conventional ELISA plate reader at 570 nm (maximum absorbancy). The quantity of reduced formazan corresponds to the number of vital cells in the culture.
Human T-lymphoblastic leukaemia cell line CEM was used for routine screening of these compounds. […] The cells were maintained in Nunc/Corning 80 cm^2 plastic tissue culture flasks and cultured in cell culture medium (DMEM with 5 g/l glucose, 2 mM glutamine, 100 U/ml penicillin, 100 μg/ml streptomycin, 10% foetal calf serum and sodium bicarbonate). Individual compounds were dissolved in 10% diiethylsulfoxide/saline, pH 8.0.
The cell suspensions that were prepared and diluted according to the particular cell type and the expected target cell density (2,500–30,000 cells per well based on cell growth characteristics) were added by pipette (80 μl) into 96/well microtiter plates. Inoculates were allowed a pre-incubation period of 24 hours at 37° C. and 5% CO2 for stabilisation. Four-fold dilutions of the intended test concentration were added at time zero in 20 μl aliquots to the microtiter plate wells. Usually, test compounds were evaluated at six 4-fold dilutions. In routine testing, the highest well concentration was 250 μM, but it may differ, depending on the agent. All drug concentrations were examined in duplicate. Incubations of cells with the test compounds lasted for 72 hours at 37° C., in 5% CO2 atmosphere and 100% humidity. At the end of the incubation period, the cells were assayed by using the MTT assay. […] After this incubation period, formazan was solubilized by the addition of 100 μl/well of 10% SDS in water (pH=5.5) followed by further incubation at 37° C. overnight The optical density (OD) was measured at 540 nm with the Labsystem iEMS Reader MF(UK). The tumour cell survival (TCS) was calculated using the following equitation: TCS=(ODdrug exposed well/mean ODcontrol wells)×100%. The TCS50 value, the drug concentration lethal to 50% of the tumour cells, was calculated from the obtained dose response curves. […]

[11] = tested on: SW620 human colon cancer, metastasis; assay: MTT cytotoxicity assay, SW620; assay type: cell-based; conditions: Homo sapiens, SW-620, 72 hours, read-out: TCS50
Excerpt: as §1, §2

[12] = tested on: HepG2 human hepatocellular carcinoma; assay: MTT cytotoxicity assay, HepG2; assay type: cell-based; conditions: Homo sapiens, 72 hours, read-out: TCS50
Excerpt: as §1, §2

[13] = tested on: K562-FLUD human promyelocytic leukemia, fludarabin resistant; assay: MTT cytotoxicity assay, K562-FLUD; assay type: cell-based; conditions: Homo sapiens, 72 hours, read-out: TCS50
Excerpt: as §1, §2

human normal lymphocytes = assay: MTT cytotoxicity assay, normal lymphocytes; assay type: cell-based; conditions: Lymphocyte, 72 hours, read-out: TCS50
Excerpt: as §1, §2

[14] = tested on: K562-ARA-C human promyelocytic leukemia, cytarabin resistant; assay: MTT cytotoxicity assay, K562-ARA-C; assay type: cell-based; conditions: Homo sapiens, 72 hours, read-out: TCS50
Excerpt: as §1, §2

B16 mouse melanoma = assay: MTT cytotoxicity assay, B16; assay type: cell-based; conditions: Mus musculus, 72 hours, read-out: TCS50
Excerpt: as §1, §2

[15] = tested on: Saos2 human, p53−/−, Rb−/−; assay: MTT cytotoxicity assay, Saos2; assay type: cell-based; conditions: Homo sapiens, SAOS-2, 72 hours, read-out: TCS50
Excerpt: as §1, §2

U87MG human glioblastoma = assay: MTT cytotoxicity assay, U87MG; assay type: cell-based; conditions: Homo sapiens, U-87 MG, 72 hours, read-out: TCS50
Excerpt: as §1, §2

[16] = tested on: CEM-VCR 1/F3 human T-lymphoblastic leukemia, vincristin resistant; assay: MTT cytotoxicity assay, CEM-VCR 1/F3; assay type: cell-based; conditions: Homo sapiens, 72 hours, read-out: TCS50
Excerpt: as §1, §2

[17] = tested on: U2OS human osteosarcoma, p53+/−, Rb+/−; assay: MTT cytotoxicity assay, U2OS; assay type: cell-based; conditions: Homo sapiens, 72 hours, read-out: TCS50
Excerpt: as §1, §2

[18] = tested on: CEM-VCR bulk human T-lymphoblastic leukemia, vincristin resistant; assay: MTT cytotoxicity assay, CEM-VCR bulk; assay type: cell-based; conditions: Homo sapiens, 72 hours, read-out: TCS50
Excerpt: as §1, §2

[19] = tested on: CEM-DNR bulk human T-lymphoblastic leukemia, daunorubicin resistant; assay: MTT cytotoxicity assay, CEM-DNR bulk; assay type: cell-based; conditions: Homo sapiens, 72 hours, read-out: TCS50
Excerpt: as §1, §2

H3 histone (Lys9) = assay: Histone acetylation, Western blot in CEM cells; assay type: cell-based, human
Method: CEM cells were cultured in Dulbeco's modified essential medium with 4.5 g dextrose/l, 10% of foetal calf serum, 2 mM glutamine, 100 U/ml penicillin and 100 μg/ml streptomycin with/without the indicated concentrations of HDAC inhibitor TSA or I.3. At selected time points, cells were harvested, washed in ice cold Hank's balanced salt solution and solubilized on ice using SDS-PAGE sample buffer containing protease and phosphatase inhibitors (10 μg/ml of leupeptin, 10 μg/ml of aprotinin, 10 μg/ml of soybean trypsin inhibitor, 100 μmol of benzamide, 1 mM of sodium vanadate, 1 mM of NaF, 1 mM of phenylphosphate) and boiled immediately.
Total cellular proteins (100 μg/well) were separated on SDS-PAGE electrophoresis, blotted on polyvinyldifluoride membranes and acetylated histone was detected using a anti-acetyl(Lys9)-histone H3 rabbit polyclonal antibody (Cell Signalling Technology, Beverly, Mass.; Cat# 9671L) and visualized by chemilumniuscence (ECL-Western Blotting System, Amersham). Details of the Western blot technique are described in Ausubel, F. M., Brent, R, Kingston, R. E., Moore, D. D., Seidman, J. G., Smith, J. A., Struhl, K. (Eds): Short Protocols in Molecular. Biology, 2nd edition, John Wiley & Sons, New York, Chichester, Brisbane, Toronto, Singapore, 1992, page 10–33–10–35.

[20] = tested on: human SK-N-AS neuroblastoma; assay: In vivo activity in xenotransplanted human neuroblastoma; set-up: species or system CD-1/Ctrl-1 nu/nu nude female mice; conditions: cisplatin 4 mg/kg subcutaneously 1×D1; SK-N-AS in nude mice (FIG. 2)
Method: Human neuroblastoma SK-N-AS cell line was obtained from ATTC. The line was cultured in Dulbeco's modified essential medium with 4.5 g dextrose/l, 10% of foetal calf serum, 2 mM glutamine, 100 U/ml penicillin and […] streptomycin. For transplantation purposes, only the cells in log phase were used.
CD-1/Ctrl-1 nu/nu nude female mice, 8 weeks old, 18–22 g weight were used in this study (IffaCredo, France). Animals were inoculated with 5.10^6 tumour cells subcutaneously into right inquinal region. Following transplantation, tumor growth was measured in both the control/vehicle and the treated groups using calipers. Tumor volume (TV) was calculated as follows: TV=(a^2×b)/2, where a is width and b is length The statistical significance was evaluated using a […].
Cisplatin (Platidiam 10 inj, sicc., Lachema, Czech Republic) was used as a control drug in this experiment. It was diluted in apyrogenic water and applied to animals in a final volume of 0.18 ml subcutaneously at day 1.
I.3 was synthesised as described above. It was suspended at 10 mg/ml in 5% dextrose and pH was adjusted to 8.0 with sodium hydroxide. vehicle: 5% dextrose with pH adjusted to 8.0 with sodium hydroxide. […]

C=C(C)[C@@H]1CC[C@]2(C(=O)O)CC[C@]3(C)[C@H](CC[C@@H]4[C@@]5(C)CC[C@H](O)C(C)(C)[C@@H]5CC[C@]43C)[C@@H]12 [Betulinic acid, betulinic acid, reference compound]
IC50 [1]: 4.6 µM | IC50 [2]: 250 µM | IC50 [3]: 250 µM | IC50 [4]: 24 µM | IC50 [5]: 101 µM | IC50 (HT-29 human colon cancer): 250 µM | IC50 [6]: 20 µM | IC50 [7]: 250 µM | IC50 [8]: 250 µM | IC50 [9]: 250 µM | IC50 (MEL-3 human melanoma): 2.7 µM | IC50 ([10]; Homo sapiens, CEM, MTT assay, 72 hours, read-out: TCS50): 250 µM | IC50 [11]: 250 µM | IC50 [12]: 3.6 µM | IC50 [13]: 250 µM | IC50 (human normal lymphocytes): 250 µM | IC50 [14]: 250 µM | IC50 (B16 mouse melanoma): 36 µM | IC50 [15]: 250 µM | IC50 (U87MG human glioblastoma): 250 µM | IC50 [16]: 19 µM | IC50 [17]: 250 µM | IC50 [18]: 69 µM | IC50 [19]: 250 µM

CC(/C=C/C(=O)NO)=C\[C@@H](C)C(=O)c1ccc(N(C)C)cc1 [TSA, trichostatin A, reference compound]
IC50 ([10]; CEM cells, as stated in the histone acetylation study, read-out: IC50): 0.24 µM | increase of histone acetylation (H3 histone (Lys9); 0.24 μM (IC50)): no significant ability to increase histone acetylation | acetylation of H3 histone in Lys9 position (H3 histone (Lys9); Western blot (FIG. 5)): rapidly acetylated

N.N.[Cl][Pt][Cl] [cisplatin, Cisplatin, reference compound]
tumor growth (tumor volume) [20]: no significant activity
